Test results reported in US10179128B2, “Regimens for treating and preventing lysosomal disorders and degenerative disorders of the central nervous system” (Amicus Therapeutics, Inc., priority 2015, dated 2019).
Numbering of substitutions follows the chain as printed. Counter-ions that a name gives are not always drawn.

How the values were obtained:
[1] = pKa; format: physicochemical
[2] = target: T1, GCase (Mus musculus, UniProt P17439); experiment: ED50 in brain; format: in vivo
T1 construct: from tissue; host or cells: brain
T1 sequence (P17439 20-515): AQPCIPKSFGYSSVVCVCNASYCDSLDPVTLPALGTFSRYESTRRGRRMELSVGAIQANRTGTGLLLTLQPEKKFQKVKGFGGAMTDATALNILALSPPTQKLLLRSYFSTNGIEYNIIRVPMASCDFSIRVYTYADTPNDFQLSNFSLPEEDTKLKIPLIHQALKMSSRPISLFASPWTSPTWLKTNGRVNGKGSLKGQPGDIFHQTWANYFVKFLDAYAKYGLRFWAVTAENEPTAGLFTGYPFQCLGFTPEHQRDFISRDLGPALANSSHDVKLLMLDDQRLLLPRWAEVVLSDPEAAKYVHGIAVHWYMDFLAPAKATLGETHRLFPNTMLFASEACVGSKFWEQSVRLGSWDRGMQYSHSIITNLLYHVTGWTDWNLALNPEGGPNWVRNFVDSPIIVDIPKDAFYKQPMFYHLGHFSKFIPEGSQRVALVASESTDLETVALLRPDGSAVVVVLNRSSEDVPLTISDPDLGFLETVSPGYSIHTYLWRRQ

[3] = target: T2, GCase N370S (Homo sapiens, UniProt P04062, N409S); experiment: cell-based
T2 sequence (P04062 40-536 N409S): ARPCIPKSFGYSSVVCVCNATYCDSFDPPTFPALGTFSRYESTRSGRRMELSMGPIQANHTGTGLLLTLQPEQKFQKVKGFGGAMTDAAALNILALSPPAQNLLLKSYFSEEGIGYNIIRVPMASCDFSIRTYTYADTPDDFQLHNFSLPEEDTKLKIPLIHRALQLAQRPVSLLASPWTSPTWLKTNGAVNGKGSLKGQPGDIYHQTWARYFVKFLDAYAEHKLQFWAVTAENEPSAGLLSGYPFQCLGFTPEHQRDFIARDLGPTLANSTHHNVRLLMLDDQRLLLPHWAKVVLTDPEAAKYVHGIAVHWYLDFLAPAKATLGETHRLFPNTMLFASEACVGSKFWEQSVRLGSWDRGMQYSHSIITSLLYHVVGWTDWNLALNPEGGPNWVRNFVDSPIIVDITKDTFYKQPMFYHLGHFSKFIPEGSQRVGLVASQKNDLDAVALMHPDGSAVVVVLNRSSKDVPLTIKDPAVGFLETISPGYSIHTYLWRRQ

[4] = target: T3, rhGCase (Homo sapiens, UniProt P04062); settings: rats
T3 sequence (P04062 40-536): T2 sequence (P04062 40-536 N409S) with S370N

[5] = Blood-brain barrier penetration in mice, oral 30 mg/kg FBE; format: in vivo; settings: for Kp / Cmax: mouse, oral, 30 mg/kg; for Kp: brain and plasma, read-out: Barin/Plasma Cmax (%); for Cmax: plasma
Source text: The ability of a drug to penetrate the blood-brain barrier can be an important function. Without the capability of penetrating into the brain, the drug will not likely have a therapeutic effect in tissues in the brain.

[6] = Bioavailability (plasma as percent oral dose); format: in vivo
[7] = Brain tissue washout / efflux half-life; format: in vivo
Source text: To evaluate the potential therapeutic effect of a chaperone, the washout period can be examined to determine the length of time required to washout the inhibitor. Otherwise, enzyme that is successfully trafficked to the lysosome may not have optimal functionality because the chaperone, which also functions as a competitive inhibitor, can continue to compete with the substrate for the enzyme active site.

[8] = target: T4, recombinant human GCase (rhGCase) (Homo sapiens, UniProt P04062); experiment: In vitro thermal stability assay of rhGCase (SYPRO Orange fluorescence); format: binding; settings: 100 μM compound, neutral pH; enzyme alone approximately 53° C.
T4 sequence (P04062 40-536): T2 sequence (P04062 40-536 N409S) with S370N
Source text: A dye (SYPRO® Orange) that fluoresces when it binds to hydrophobic regions of enzyme was used to assess stability, because unstable enzyme that loses its native conformation likely exposes internal hydrophobic amino acids, leading to an increase in fluorescence.

[9] = test system: L444P mice; experiment: Example 8: additional dosing regimens of Compound 3 in L444P mice; format: in vivo
Method: The purpose of this study was to improve dosing choices based on data collected from Example 7. Specific tissues of L444P mice that were measured were the liver, brain, spleen, bone, marrow, and plasma. […] In Example 8, two dosing strategies were used, fixed dose and constant weekly dose. All doses were administered orally in drinking water. Fixed dose mice were given 1 mg/kg FBE either daily, two days a week, or three days a week. Constant weekly dose mice were given a total of 7 mg/kg FBE per week, either three days a week (Monday, Wednesday, Friday), two days a week (Monday, Thursday), or daily. For example, mice receiving 3 doses per week (Monday, Wednesday, Friday) would receive 2.33 mg/kg FBE in each dose, while mice receiving doses twice a week (Monday, Thursday) would receive 3.5 mg/kg FBE per dose.

[10] = test system: L444P mice; experiment: Example 7: daily dosing of Compound 3 in L444P mice over four weeks, fixed and ascending doses in drinking water; format: in vivo
Method: Both fixed and ascending dosing schemes were used and were administered in drinking water. Four fixed dose groups, 0.01 mg/kg FBE, 0.1 mg/kg FBE, 1 mg/kg FBE, and 10 mg/kg FBE were used. A fifth group, which used an ascending dose, was also included, and it began at 0.01 mg/kg FBE and increased by 10-fold each week, with a dose during the final week of 10 mg/kg FBE.

[11] = Blood-brain barrier penetration in rats, single 100 mg/kg FBE p.o.; format: in vivo; settings: rat, brain and plasma, po, exposure in nM-hr, read-out: total brain exposure as % of plasma exposure
[12] = test system: L444P mice; experiment: Example 6: daily oral dosing of Compound 3 in L444P mice; format: in vivo
Method: (§1) The purpose of this study was to first confirm that the GlcSph substrate was elevated in N370S and L444P mutant mouse models.
(§2) Both compounds were administered daily via an oral route.

[13] = test system: L444P mice; experiment: Comparison of Examples 6-8 in L444P mice; format: in vivo
Source text: Changes in brain, liver, and spleen GCase activity were compared across the studies of Examples 6-8. In FIGS. 20 and 21, C1 denotes the study from Example 6, C2 denotes the study from Example 7, and C3 denotes the study from Example 8.

[14] = test system: N370S mice; experiment: Example 6: daily oral dosing of IFG tartrate in N370S mice; format: in vivo
Method: as §1, §2

[15] = mice, oral 30 mg/kg FBE, brain tissue
[16] = all dose groups, Day 1 and Day 30 after 24-hour washout
[17] = ascending 0.01-10 mg/kg FBE dose

Structure (SMILES): O[C@H]1[C@H](O)CNC[C@@H]1C(F)F [Compound 1]
- pKa [1]: 7.1
- ED50 [2]: 5.2 mg/kg
- Emax [3]: 106%
- normalized GCase activity in plasma versus rhGCase alone ([4]; 3 mg/kg oral gavage 30 minutes before IV rhGCase): sustained a higher normalized GCase activity in plasma longer
- rhGCase western blot band versus no chaperone ([4]; 3 mg/kg, 5 minute and 10 minute intervals): a more intense protein band
- Brain Cmax at 30 mg/kg [5, 15]: 9.7 µM
- Kp [5]: 0.115
- Cmax [5]: 84.5 µM
- bioavailability [6]: 106%
- half-life [7]: ~1.4 h
- temperature of peak fluorescence (unfolding) [8]: 65 °C

Structure (SMILES): Cl.O[C@H]1[C@H](O)CNC[C@@H]1C(F)F [Compound 2]
- crossing of the blood-brain barrier ([5]; mice): capable of crossing the blood-brain barrier
- Brain Cmax at 30 mg/kg [5, 15]: 9.7 µM

Structure (SMILES): O=C(O)/C=C/C(=O)O.O[C@H]1[C@H](O)CNC[C@@H]1C(F)F [Compound 3]
- brain GCase activity versus vehicle ([9]; 1 mg/kg FBE daily dose): increased and was significant
- liver GlcSph concentration versus vehicle ([9]; 1 mg/kg FBE daily dose): significant reduction
- spleen GlcSph concentration versus vehicle ([9]; 1 mg/kg FBE daily dose): significant reduction
- plasma concentration of GlcCer ([9]; across all doses): no significant differences
- GCase activity in brain, liver and spleen versus vehicle ([10]; 0.01 mg/kg FBE and 0.1 mg/kg FBE): did not show significant differences
- brain GlcSph versus vehicle ([10]; 1 mg/kg FBE): increase in GlcSph
- liver GlcSph versus vehicle ([10]; 1 mg/kg FBE): decrease in GlcSph
- spleen GlcSph versus vehicle ([10]; 1 mg/kg FBE): decrease in GlcSph
- increase in brain GCase activity versus vehicle ([10]; 1 mg/kg FBE daily): almost a two-fold increase
- increase in liver GCase activity versus vehicle ([10]; 1 mg/kg FBE daily): 5 fold
- increase in spleen GCase activity versus vehicle ([10]; 1 mg/kg FBE daily): two-fold increase
- brain GlcCer concentration versus vehicle ([10]; 1 mg/kg FBE, after 30 days): No significant difference
- plasma GlcCer versus vehicle [10, 16]: no significant increases or decreases
- plasma GlcSph versus vehicle [10, 16]: no significant increases or decreases
- liver GlcCer concentration versus vehicle ([10]; all dose groups, after 30 days): No significant differences
- brain GlcSph concentration versus vehicle [10, 17]: increase in substrate concentration
- increase in brain GCase activity versus vehicle [10, 17]: about three-fold
- increase in liver GCase activity versus vehicle [10, 17]: about 8 fold
- increase in spleen GCase activity versus vehicle [10, 17]: about 4 fold
- spleen GlcSph concentration versus vehicle [10, 17]: reduction in concentration
- brain GlcCer concentration versus vehicle ([10]; ascending dose, after 30 days): increased
- Kp [11]: 0.85
- enhancement of GCase activity in liver ([12]; 10 mg/kg FBE daily): 7.6 fold
- GlcSph in spleen versus control ([12]; 10 mg/kg FBE daily oral): significant reduction of GlcSph
- enhancement of GCase activity in brain ([12]; 10 mg/kg FBE daily, almost equivalent to wild-type activity): 2.8 fold
- brain GCase activity ([13]; 0-10 mg/kg FBE ascending dose, studies of Examples 6 and 7): increased
- brain GCase activity ([13]; 1 mg/kg FBE dose, Example 7 and Example 8): increased
- liver GCase activity ([13]; 1 mg/kg FBE dosing regimens, Example 7 and Example 8): elevated
- brain GlcSph level versus vehicle ([13]; 10 mg/kg FBE): increased level of GlcSph over the vehicle
- brain GlcSph level versus vehicle ([13]; ascending dose (0-10 mg/kg FBE)): increased level of GlcSph over the vehicle
- GlcSph substrate level change in the spleen ([13]; ascending dose (0-10 mg/kg FBE) and 1 mg/kg FBE dose, Examples 6-8): significant
- liver GCase activity ([13]; ascending dose, Example 6 and Example 7): higher GCase activity

Structure (SMILES): OC[C@H]1CNC[C@@H](O)[C@@H]1O [IFG tartrate, isofagomine tartrate]
- Kp [11]: 0.29
- GlcSph in liver versus control ([14]; 100 mg/kg FBE daily oral): reduction in GlcSph substrate
- GlcSph in spleen versus control ([14]; 100 mg/kg FBE daily oral): significant reduction of GlcSph
- reduction in bone GlcSph concentration ([14]; bone): 31%
- reduction of GlcSph in marrow ([14]; marrow): 45%
- crossing of the blood-brain barrier ([5]; mice): capable of crossing the blood-brain barrier
- peak compound concentration in brain ([5]; mice, oral 30 mg/kg FBE, brain tissue, value in nM): 30 nM

Structure (SMILES): OC[C@H]1CNC[C@@H](O)[C@@H]1O [Isofagomine, isofagomine, reference compound]
- pKa [1]: 8.4
- ED50 [2]: 56.4 mg/kg
- Brain Cmax at 30 mg/kg [5, 15]: 0.3 µM
- Kp [5]: 0.0165
- Cmax [5]: 17.5 µM
- bioavailability [6]: 53%
- Brain tissue efflux (half-life) [7]: 2.9 h
- half-life [7]: ~3 h
